# Source: patent publication EP1455790B1, “USE OF PYRIDINE-2,4-DICARBOXYLIC ACID DIAMIDES AND OF PYRIMIDINE-4,6-DICARBOXYLIC ACID DIAMIDES FOR SELECTIVE COLLAGENASE INHIBITION” (Sanofi-Aventis Deutschland GmbH, priority 2001, dated 2003)
# Like-named read-outs stand apart in the source and are kept apart here.
# Biological target: T1, katalytischen Domäne der humanen Kollagenase -3(MMP-13) (Homo sapiens, UniProt P45452)
# T1 construct: Die Enzymlösung enthält 1,67 µg/mL der Enzymdomäne; purchased INVITEK, Berlin 30100 803
# Test: Enzymatic activity of the catalytic domain of human collagenase-3 (MMP-13), fluorogenic substrate
# Format: biochemical
# Protocol: Aktivierung des Proenzyms: 2 Volumenanteile Proenzym werden mit 1 Volumenanteil APMA-Lösung bei 37 °C für 1,5 Stunden inkubiert. Die APMA-Lösung wird aus einer 10 mmol/L p-Aminophenyl-Mercuric Acetate Lösung in 0,1 mmol/L NaOH durch Verdünnen mit 3 Volumenteile Tris/HCl Puffer pH7,5 (siehe unten) hergestellt. Der pH-Wert wird durch Zugabe von 1 mmol/L HCl zwischen 7;0 und 7,5 eingestellt. Nach der Aktivierung des Enzyms wird dieses mit dem Tris/HCl Puffer auf eine Konzentration von 1,67 µg/mL verdünnt.
# Zur Messung der Enzymaktivität werden 10 µL Enzymlösung mit 10 µL einer 3%igen (v/v) gepufferten Dimethylsulfoxid-Lösung (Reaktion 1) für.15 Minuten inkubiert. Zur Messung der Enzyminhibitoraktivität werden 10 µL Enzymlösung mit 10 µL einer 3%igen (v/v) gepufferten Dimethylsulfoxid-Lösung, die den Enzyminhibitor enthält, inkubiert (Reaktion 2).
# Die Enzymaktivität wird dargestellt als Extinktionszunahme/Minute. […] Die Pufferlösung enthält 0,05% Brij (Sigma, Deisenhofen, Deutschland) sowie 0,1 mol/L Tris/HCI, 0,1 mol/L NaCI, 0,01 mol/L CaCl2 (pH=7,5). Die Enzymlösung enthält 1,67 µg/mL der Enzymdomäne. Die Substratlösung enthält 0,75 mmol/L des fluorogenen Substrates (7-Methoxycoumarin-4-yl)acetyl-Pro-Leu-Gly-Leu-3-(2',4'-dinitrophenyl)-L-2,3-diaminopropionyl-Ala-Arg-NHz (Bachem, Heidelberg, Deutschland).
Structure (SMILES),"IC50 (comparative example, same method as Table 4, read-out: IC50-Wertes für die Inhibition der humanen Kollagenase -3 (MMP-13)) [µM]","IC50 (catalytic domain, APMA-activated pro-enzyme, Tris/HCl buffer pH 7,5, read-out: IC50 MMP13) [µM]"
"CCNC(=O)c1cc(C(=O)NCC)ncn1 [Pyrimidin-4,6-dicarbonsäurediethylamid]",90,
"O=C(NCc1ccccc1)c1cc(C(=O)NCc2ccccc2)ncn1 [Beispiel 1, Pyrimidin-4,6-dicarbonsäure-dibenzylamid]",,0.4
